What was measured:
[1] = Sensory evaluation of sweetness potency relative to sugar; conditions: for Sweetness Potency: Table 1, based on an aqueous solution of 4% sucrose having a sweetness potency of 1 (one); for sweetness potency value: sensory evaluation, running text
ICR male mice = conditions: oral administration of 2.0 g/kg once
[2] = Stability (survival rate) in acidic aqueous solution by HPLC; conditions: pH 3, 80° C., 7 hours, comparative compound = α-L-aspartyl-D-α-aminobutyric acid (S)-α-ethylbenzylamide
Protocol: With respect to stability in an acidic aqueous solution, the percentage (survival rate) of the compound still surviving in an acidic aqueous solution having a pH of 3 at 80° C. for 7 hours by HPLC was measured.

CC[C@H](NC(=O)C(C)(CC)NC(=O)[C@@H](N)CC(=O)O)c1ccccc1 (mixture of isomers) [Example 10, α-L-aspartyl-DL-isovaline (S)-α-ethylbenzylamide]
Sweetness Potency [1]: 100 | sweetness potency value [1]: 100 times that of sugar

CC[C@H](NC(=O)C(NC(=O)[C@@H](N)CC(=O)O)c1ccco1)c1ccccc1 (mixture of isomers)
toxicity (ICR male mice): no problematic toxicity

CC[C@H](NC(=O)C(NC(=O)[C@@H](N)CC(=O)O)c1ccco1)c1ccccc1 (mixture of isomers) [Example 4, α-L-aspartyl-DL-furylglycine (S)-α-ethylbenzylamide]
Sweetness Potency [1]: 1200 | sweetness potency value [1]: 1200 times that of sugar | sweetness potency value ([1]; listed as α-L-aspartyl-DL-furylglycine(S)-α-ethylbenzylamide): about 1200 times that of sugar

COC[C@H](NC(=O)C(NC(=O)[C@@H](N)CC(=O)O)c1ccco1)c1ccccc1 (mixture of isomers) [Example 5, α-L-aspartyl-DL-furylglycine (R)-α-methoxymethylbenzylamide]
Sweetness Potency [1]: 1200 | sweetness potency value [1]: 1200 times that of sugar

COC[C@H](NC(=O)C(NC(=O)[C@@H](N)CC(=O)O)c1ccco1)c1ccccc1 (mixture of isomers) [α-L-aspartyl-DL-furylglycine (R)-α-methoxymethylbenzylamide]
sweetness potency value [1]: about 1200 times that of sugar | toxicity (ICR male mice): no problematic toxicity

CCC(NC(=O)C(CC(C)C)NC(=O)C(N)CC(=O)O)c1ccccc1 [D-Leu (S) Et Ph]
Sweetness Potency [1]: 100

CCC(NC(=O)C(NC(=O)C(N)CC(=O)O)C(C)OC)c1ccccc1 [D-Thr(Me) (S) Et Ph]
Sweetness Potency [1]: 150

CCC(NC(=O)C(NC(=O)C(N)CC(=O)O)C(C)CC)c1ccccc1 [D-allo-Ile (S) Et Ph]
Sweetness Potency [1]: 90

CC[C@H](NC(=O)[C@H](NC(=O)[C@@H](N)CC(=O)O)[C@H](C)O)c1ccccc1 [Example 1, α-L-aspartyl-D-threonine (S)-α-ethylbenzylamide]
Sweetness Potency [1]: 1300 | sweetness potency value [1]: 1300 times that of sugar | sweetness potency value ([1]; listed as α-L-aspartyl-D-threonine(S)-α-ethylbenzylamide): about 1300 times that of sugar | toxicity (ICR male mice): no problematic toxicity

COC[C@H](NC(=O)[C@H](NC(=O)[C@@H](N)CC(=O)O)[C@H](C)O)c1ccccc1 [Example 2, α-L-aspartyl-D-threonine (R)-α-methoxymethylbenzylamide]
Sweetness Potency [1]: 500 | sweetness potency value [1]: 500 times that of sugar

CC[C@H](NC(=O)[C@H](NC(=O)[C@@H](N)CC(=O)O)[C@H](C)CC)c1ccccc1 [Example 3, α-L-aspartyl-D-isoleucine (S)-α-ethylbenzylamide]
Sweetness Potency [1]: 500 | sweetness potency value [1]: 500 times that of sugar

CC[C@H](NC(=O)C1(NC(=O)[C@@H](N)CC(=O)O)CCCC1)c1ccccc1 [Example 6, α-L-aspartyl-α-aminocyclopentanecarboxylic acid (S)-α-ethylbenzylamide]
Sweetness Potency [1]: 1000 | sweetness potency value [1]: 1000 times that of sugar | stability (survival rate in an acidic aqueous solution) relative to comparative compound [2]: about 10 times that of the comparative

CC[C@H](NC(=O)C1(NC(=O)[C@@H](N)CC(=O)O)CCCCC1)c1ccccc1 [Example 7, α-L-aspartyl-α-aminocyclohexanecarboxylic acid (S)-α-ethylbenzylamide]
Sweetness Potency [1]: 1000 | sweetness potency value [1]: 1000 times that of sugar | stability (survival rate in an acidic aqueous solution) relative to comparative compound [2]: about 9 times that of the comparative

CC[C@H](NC(=O)C(CC)(CC)NC(=O)[C@@H](N)CC(=O)O)c1ccccc1 [Example 9, α-L-aspartyl-α,α-diethylglycine (S)-α-ethylbenzylamide]
Sweetness Potency [1]: 200 | sweetness potency value [1]: 1000 times that of sugar

COC[C@H](NC(=O)[C@H](NC(=O)[C@@H](N)CC(=O)O)C(C)C)c1ccccc1 [Example 11, α-L-aspartyl-D-valine (R)-α-methoxymethylbenzylamide]
Sweetness Potency [1]: 1300 | sweetness potency value [1]: 1300 times that of sugar

COC[C@H](NC(=O)[C@H](NC(=O)[C@@H](N)CC(=O)O)c1ccccc1)c1ccccc1 [Example 12, α-L-aspartyl-D-phenylglycine (R)-α-methoxymethylbenzylamide]
Sweetness Potency [1]: 500 | sweetness potency value [1]: 500 times that of sugar

COC[C@H](NC(=O)C1(NC(=O)[C@@H](N)CC(=O)O)CCCCC1)c1ccccc1 [Example 13, α-L-aspartyl-α-aminocyclohexanecarboxylic acid (R)-α-methoxymethylbenzylamide]
Sweetness Potency [1]: 250 | sweetness potency value [1]: 250 times that of sugar

COC[C@@H](NC(=O)[C@H](NC(=O)[C@@H](N)CC(=O)O)C(C)C)C(C)C [Example 14, α-L-aspartyl-D-valine (S)-α-methoxymethyl-β-methylpropylamide]
Sweetness Potency [1]: 40 | sweetness potency value [1]: 40 times that of sugar

CCOC[C@H](NC(=O)[C@H](NC(=O)[C@@H](N)CC(=O)O)C(C)C)c1ccccc1 [Example 15, α-L-aspartyl-D-valine (R)-α-ethoxymethylbenzylamide]
Sweetness Potency [1]: 500 | sweetness potency value [1]: 500 times that of sugar

CC[C@@H](NC(=O)[C@@H](N)CC(=O)O)C(=O)N[C@@H](COC)c1ccccc1 [Example 16, α-L-aspartyl-D-α-aminobutyric acid (R)-α-methoxymethylbenzylamide]
Sweetness Potency [1]: 1200 | sweetness potency value [1]: 1200 times that of sugar

CC[C@@H](C)[C@@H](NC(=O)[C@@H](N)CC(=O)O)C(=O)N[C@@H](COC)c1ccccc1 [Example 17, α-L-aspartyl-D-isoleucine (R)-α-methoxymethylbenzylamide]
Sweetness Potency [1]: 500 | sweetness potency value [1]: 500 times that of sugar

COC[C@H](NC(=O)[C@@H](C)NC(=O)[C@@H](N)CC(=O)O)c1ccccc1 [Example 18, α-L-aspartyl-D-alanine (R)-α-methoxymethylbenzylamide]
Sweetness Potency [1]: 300 | sweetness potency value [1]: 300 times that of sugar

COC[C@H](NC(=O)[C@H](NC(=O)[C@@H](N)CC(=O)O)C(C)C)C(C)C [Example 19, α-L-aspartyl-D-valine (R)-α-methoxymethyl-β-methylpropylamide]
Sweetness Potency [1]: 30 | sweetness potency value [1]: 30 times that of sugar

COC[C@@H](NC(=O)[C@H](NC(=O)[C@@H](N)CC(=O)O)C(C)C)c1ccccc1 [Example 20, α-L-aspartyl-D-valine (S)-α-methoxymethylbenzylamide]
Sweetness Potency [1]: < 20 | sweetness potency value [1]: not more than 20 times that of sugar

COC[C@H](NC(=O)[C@H](NC(=O)[C@@H](N)CC(=O)O)C(C)C)c1ccccc1 [α-L-aspartyl-D-valine (R)-α-methoxymethylbenzylamide]
sweetness potency value [1]: about 1300 times that of sugar | toxicity (ICR male mice): no problematic toxicity

CC[C@@H](NC(=O)[C@@H](N)CC(=O)O)C(=O)N[C@@H](COC)c1ccccc1 [α-L-aspartyl-D-α-aminobutyric acid (R)-α-methoxymethylbenzyl]
sweetness potency value [1]: about 1200 times that of sugar

CC[C@H](NC(=O)C1(NC(=O)[C@@H](N)CC(=O)O)CCCCC1)c1ccccc1 [α-L-aspartyl-α-aminocyclohexanecarboxylic acid (S)-α-ethylbe]
sweetness potency value [1]: about 1000 times that of sugar | toxicity (ICR male mice): no problematic toxicity | stability (survival rate in an acidic aqueous solution) relative to comparative compound [2]: about 9 times that of the comparative compound

CC[C@H](NC(=O)C1(NC(=O)[C@@H](N)CC(=O)O)CCCC1)c1ccccc1 [α-L-aspartyl-α-aminocyclopentanecarboxylic acid (S)-α-ethylb]
sweetness potency value [1]: about 1000 times that of sugar | stability (survival rate in an acidic aqueous solution) relative to comparative compound [2]: about 10 times that of the comparative compound
